We go through 18 compounds from patent publication EP1208096B1, “SUBSTITUTED PYRIDAZINES AND FUSED PYRIDAZINES WITH ANGIOGENESIS INHIBITING ACTIVITY” (Bayer Corporation, priority 1999, dated 2001).

The IC50 is the concentration that inhibits the measured activity by half.

Counter-ions that a name gives are not always drawn.

The target in test [1] is T1, NIH3T3 cells expressing the full length KDR receptor (Homo sapiens, UniProt P35968).
T1 construct: NIH3T3 cells expressing the full length KDR receptor; expressed in transfected cells; host or cells: NIH3T3 cells (G418 selection)
Put plainly: Cell mechanistic assay - Inhibition of 3T3 KDR phosphorylation. To be noted: VEGF (30 ng / ml) for 10 minutes after 30 minutes with compound; KDR phosphotyrosine ELISA. Type of test: cell-based. The protocol:
NIH3T3 cells expressing the full length KDR receptor were grown in DMEM (Life Technologies, Inc., Grand Island, NY) supplemented with 10% newborn calf serum, low glucose, 25 mM /L sodium pyruvate, pyridoxine hydrochloride and 0.2 mg/ ml of G418 (Life Technologies Inc., Grand Island, NY). The cells were maintained in collagen I-coated T75 flasks (Becton Dickinson Labware, Bedford, MA) in a humidified 5% CO2 atmosphere at 37°C.
Fifteen thousand cells were plated into each well of a collagen I-coated 96-well plate in the DMEM growth medium. Six hours later, the cells were washed and the medium was replaced with DMEM without serum. After overnight culture to quiesce the cells, the medium was replaced by Dulbecco's phosphate-buffered saline (Life Technologies Inc., Grand Island, NY) with 0.1% bovine albumin (Sigma Chemical Co., St Louis, MO). After adding various concentrations (0-300 nM) of test compounds to the cells in 1% final concentration of DMSO, the cells were incubated at room temperature for 30 minutes. The cells were then treated with VEGF (30 ng / ml) for 10 minutes at room temperature. Following VEGF stimulation, the buffer was removed and the cells were lysed by addition of 150 µl of extraction buffer (50 mM Tris, pH 7.8, supplemented with 10% glycerol, 50 mM BGP, 2 mM EDTA, 10 mM NaF, 0.5 mM NaVO4, and 0.3% TX-100) at 4°C for 30 minutes.
To assess receptor phosphorylation, 100 microliters of each cell lysate was added to the wells of an ELISA plate precoated with 300 ng of antibody C20 (Santa Cruz Biotechnology, Inc., Santa Cruz , CA). Following a 60-minute incubation, the plate was washed and bound KDR was probed for phosphotyrosine using an anti-phosphotyrosine mAb clone 4G10 (Upstate Biotechnology, Lake Placid, NY). The plate was washed and wells were incubated with anti-mouse IgG/HRP conjugate (Amersham International plc, Buckinghamshire, England) for 60 minutes. Wells were washed and phosphotyrosine was quantitated by addtion of 100 µl per well of 3,3',5,5' tetramethylbenzidine (Kirkegaard and Perry, TMB Microwell 1 Component peroxidase substrate) solution. Color development was arrested by the addition of 100 µl 1% HCl based stop solution (Kirkegaard and Perry, TMB 1 Component Stop Solution).
Optical densities (OD) were determined spectrophotometrically at 450 nm in a 96-well plate reader (SpectraMax 250, Molecular Devices). Background (no VEGF added) OD values were subtracted from all ODs and percent inhibition was calculated according to the equation: % Inhibition =((OD(VEGF control) - OD(with test compound)) X 100)/(OD(VEGF control) - OD(no VEGF added)) [formula]
IC50s were determined with a least squares analysis program using compound concentration versus percent inhibition. Compounds that have IC50 < 20 nM in this assay include those of Examples 2, 6, 7, 11, 15 and 16. Compounds that have IC50 values between 20 nM and 50 nM include those of examples 1, 4, 5, 8, 10, 12, 13 and 14. Those that have measured IC50 values > 50 nM include those of examples 9 and 21.

Test [2] concerns the target T2, cytosolic kinase domain of KDR kinase (Homo sapiens, UniProt P35968).
T2 construct: The cytosolic kinase domain of KDR kinase was expressed as a 6His fusion protein in Sf9 insect cells; 6His; made in house; host or cells: Sf9 insect cells
Put plainly: KDR Assay (ELISA, phosphorylation of poly(Glu4;Tyr1)). Type of test: biochemical. As to conditions: 3.3 µM ATP, 60 minutes at room temperature, 30 ng KDR kinase domain. The protocol:
The cytosolic kinase domain of KDR kinase was expressed as a 6His fusion protein in Sf9 insect cells. The KDR kinase domain fusion protein was purified over a Ni^++ chelating column. Ninety-six well ELISA plates were coated with 5 µg poly(Glu4;Tyr1) (Sigma Chemical Co., St Louis, MO) in 100 µl HEPES buffer (20 mM HEPES, pH 7.5, 150 mM NaCl, 0.02% Thimerosal) at 4° overnight. Before use, the plate was washed with HEPES, NaCl buffer and the plates were blocked with 1% BSA, 0.1% Tween 20 in HEPES, NaCl buffer.
Test compounds were serially diluted in 100% DMSO from 4 mM to 0.12 µM in half-log dilutions. These dilutions were further diluted twenty fold in H2O to obtain compound solutions in 5% DMSO. Following loading of the assay plate with 85 µl of assay buffer (20 mM HEPES, pH 7.5, 100 mM KCl, 10 mM MgCl2, 3 mM MnCl2, 0.05% glycerol, 0.005% Triton X-100, 1 mM -mercaptoethanol, with or without 3.3 µM ATP), 5 µl of the diluted compounds were added to a final assay volume of 100 µl. Final concentrations were between 10 µM, and 0.3 nM in 0.25% DMSO. The assay was initiated by the addition of 10µl (30 ng) of KDR kinase domain.
The assay was incubated with test compound or vehicle alone with gentle agitation at room temperature for 60 minutes. The wells were washed and phosphotyrosines (PY) were probed with an anti-phosphotyrosine (PY), mAb clone 4G10 (Upstate Biotechnology, Lake Placid, NY). PY/anti-PY complexes were detected with an anti-mouse IgG/HRP conjugate (Amersham International plc, Buckinghamshire, England). Phosphotyrosine was quantitated by incubating with 100 µl 3, 3', 5, 5' tetramethylbenzidine solution (Kirkegaard and Perry, TMB Microwell 1 Component peroxidase substrate). Color development was arrested by the addition of 100 µl 1% HCl-based stop solution (Kirkegaard and Perry, TMB I Component Stop Solution).
Optical densities were determined spectrophotometrically at 450 nm in a 96-well plate reader, SpectraMax 250 (Molecular Devices). Background (no ATP in assay) OD values were subtracted from all ODs and the percent inhibition was calculated according to the equation: % Inhibition =((OD(vehicle control) - OD(with compound)) X 100)/(OD(vehicle control) - OD(no ATP added)) [formula]
The IC50 values were determined with a least squares analysis program using compound concentration versus percent inhibition. Compounds that have IC50 < 100 nM in this assay include those of Examples 1, 2, 4, 5, 6, 7, 10, 11, 12, 13, 14, 15, 16 and 23. Compounds that have IC50 values between 100 nM and 1,000 nM include those of examples 8, 9 and 22. Those that have measured IC50 values > 1,000 nM include those of examples 3, 17, 18 and 21.
(In an ELISA, binding on a coated surface is turned into a signal by an enzyme label.)

T1 sequence (P35968 20-1356): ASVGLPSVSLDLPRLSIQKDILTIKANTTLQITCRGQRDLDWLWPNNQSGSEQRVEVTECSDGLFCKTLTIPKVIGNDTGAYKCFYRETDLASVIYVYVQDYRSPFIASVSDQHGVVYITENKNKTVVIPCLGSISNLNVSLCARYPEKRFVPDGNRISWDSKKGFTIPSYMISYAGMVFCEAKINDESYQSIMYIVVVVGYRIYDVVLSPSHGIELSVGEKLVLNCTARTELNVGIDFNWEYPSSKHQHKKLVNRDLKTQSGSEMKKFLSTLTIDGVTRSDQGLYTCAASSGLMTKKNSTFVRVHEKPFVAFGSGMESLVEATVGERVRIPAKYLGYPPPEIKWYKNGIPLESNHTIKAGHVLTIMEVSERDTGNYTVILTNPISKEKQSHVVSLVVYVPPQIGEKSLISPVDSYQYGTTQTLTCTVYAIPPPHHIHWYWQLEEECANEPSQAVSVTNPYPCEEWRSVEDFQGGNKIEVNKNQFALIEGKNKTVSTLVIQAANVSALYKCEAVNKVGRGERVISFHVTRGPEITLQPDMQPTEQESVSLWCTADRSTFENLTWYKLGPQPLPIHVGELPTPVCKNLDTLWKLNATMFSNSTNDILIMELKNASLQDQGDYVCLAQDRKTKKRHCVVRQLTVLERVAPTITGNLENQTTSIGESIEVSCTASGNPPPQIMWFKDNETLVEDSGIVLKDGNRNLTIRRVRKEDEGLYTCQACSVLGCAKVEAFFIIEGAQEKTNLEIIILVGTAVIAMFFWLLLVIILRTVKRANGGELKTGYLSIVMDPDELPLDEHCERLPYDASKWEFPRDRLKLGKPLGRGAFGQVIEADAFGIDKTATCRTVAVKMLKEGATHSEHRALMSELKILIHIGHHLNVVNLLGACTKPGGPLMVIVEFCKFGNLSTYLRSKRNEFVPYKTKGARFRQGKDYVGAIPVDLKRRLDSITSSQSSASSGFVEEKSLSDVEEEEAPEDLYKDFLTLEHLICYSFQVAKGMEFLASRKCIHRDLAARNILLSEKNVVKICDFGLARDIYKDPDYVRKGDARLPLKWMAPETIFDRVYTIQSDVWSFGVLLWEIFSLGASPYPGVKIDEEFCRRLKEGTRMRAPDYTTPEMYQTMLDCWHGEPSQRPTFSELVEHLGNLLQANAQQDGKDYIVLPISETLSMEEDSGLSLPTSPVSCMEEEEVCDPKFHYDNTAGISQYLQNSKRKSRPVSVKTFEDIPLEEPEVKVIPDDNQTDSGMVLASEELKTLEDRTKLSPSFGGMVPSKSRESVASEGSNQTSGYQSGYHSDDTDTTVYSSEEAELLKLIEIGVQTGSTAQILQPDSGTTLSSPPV
T2 sequence (P35968 834-1162 limits assumed): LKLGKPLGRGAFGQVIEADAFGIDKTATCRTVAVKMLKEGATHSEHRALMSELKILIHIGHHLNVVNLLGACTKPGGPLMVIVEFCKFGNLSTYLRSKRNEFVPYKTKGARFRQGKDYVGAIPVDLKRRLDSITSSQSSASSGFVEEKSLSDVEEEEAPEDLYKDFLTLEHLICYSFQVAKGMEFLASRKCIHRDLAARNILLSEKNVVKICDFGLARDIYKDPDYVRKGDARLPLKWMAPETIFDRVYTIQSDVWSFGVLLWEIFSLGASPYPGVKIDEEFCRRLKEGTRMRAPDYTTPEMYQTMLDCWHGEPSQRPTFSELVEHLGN

Consider `CNC(=O)c1cc(Cc2nnc(Nc3ccc(Cl)cc3)c3ccccc23)ccn1` [Example 11, 4-[4-(4-Chlorophenylamino)phthalazin-1-ylmethyl]pyridin-2-yl carboxylic acid methylamide dihydrochloride], for which the concentration for half-maximal inhibition (IC50) in test [1] is below 20 nM.

On to `c1ccc2c(Nc3ccc4ncsc4c3)nnc(Cc3ccncc3)c2c1` [Example 23, 1-(benzothiazol-6-ylamino)-4-(4-pyridylmethyl)phthalazine], for which, in test [2], the IC50 is below 100 nM. With `CNC(=O)c1cc(COc2nnc(Nc3ccc(Cl)cc3)c3ccccc23)ccn1` [Example 4, 4-[4-(4-Chlorophenylamino)phthalazin-1-yloxymethyl]pyridin-2-yl carboxylic acid methylamide], the IC50 is below 100 nM in test [2] and 20 to 50 nM in test [1]. With `NC(=O)c1cc(COc2nnc(Nc3ccc(Cl)cc3)c3ccccc23)ccn1` [Example 16, 4-[4-(4-Chlorophenylamino)phthalazin-1-yloxymethyl]pyridin-2-yl carboxylic acid amide dimethanesulfonate], the IC50 in test [1] is below 20 nM. As to `c1ccc2c(Nc3ccc4c(c3)CCC4)nnc(Cc3ccncc3)c2c1` [Example 10, 1-(indan-5-ylamino)-4-(4-pyridylmethyl)phthalazine], the half-maximal inhibitory concentration (IC50) was below 100 nM in test [2] and 20 to 50 nM in test [1]. On the same counts, the results for `NC(=O)c1cc(COc2nnc(Nc3ccc(Cl)cc3)c3ccccc23)ccn1` [Example 15, 4-[4-(4-Chlorophenylamino)phthalazin-1-yloxymethyl]pyridin-2-yl carboxylic acid amide dihydrochloride] are below 100 nM and below 20 nM. In the case of `CNC(=O)c1cc(Cc2nnc(Nc3ccc(Cl)cc3)c3ccccc23)ccn1` [Example 12, 4-[4-(4-Chlorophenylamino)phthalazin-1-ylmethyl]pyridin-2-yl carboxylic acid methylamide dimethanesulfonate], the half-inhibitory concentration (IC50) in test [1] was in the range of 20 to 50 nM. As for `Clc1ccc(Nc2nnc(Sc3nnc(-c4ccncc4)[nH]3)c3ccccc23)cc1` [Example 17, 1-(4-chlorophenylamino)-4-[5-(4-pyridyl)-1H-1,2,4-triazolyl-3-ylthio]phthalazine], in test [2], the concentration for half-maximal inhibition (IC50) is above 1000 nM. Turning to `CNC(=O)c1cc(Cc2nnc(Nc3cccc(Br)c3)c3ccccc23)ccn1` [Example 6, 4-[4-(3-Bromophenylamino)phthalazin-1-ylmethyl]-pyridin-2-yl carboxylic acid methylamide], the IC50 was below 100 nM in test [2] and below 20 nM in test [1]. The corresponding values for `NC(=O)c1cc(Cc2nnc(Nc3ccc(Cl)cc3)c3ccccc23)ccn1` [Example 13, 4-[4-(4-Chlorophenylamino)phthalazin-1-ylmethyl]pyridin2-yl carboxylic acid amide dihydrochloride] are below 100 nM and 20 to 50 nM. On the same counts, the results for `c1ccc2c(Nc3ccc(Oc4ccncc4)cc3)nnc(Cc3ccncc3)c2c1` [Example 9, 1-[4-(4-pyridyloxy)phenylamino]-4-(4-pyridylmethyl)phthalazine] are 100 to 1000 nM and above 50 nM. With `Clc1ccc(Nc2nnc(OCc3cccnc3)c3ccccc23)cc1` [Example 3, 1-(4-chlorophenylamino)-4-(3-pyridylmethoxy)phthalazine], the IC50 in test [2] was above 1000 nM. `NC(=O)c1cc(Cc2nnc(Nc3ccc(Cl)cc3)c3ccccc23)ccn1` [Example 14, 4-[4-(4-Chlorophenylamino)phthalazin-1-ylmethyl]pyridin-2-yl carboxylic acid amide dimethanesulfonate]: the 50% inhibitory concentration (IC50) in test [1] was 20 to 50 nM. Same read-out and setting: for `NC(=O)c1cc(COc2nnc(Nc3ccc(Cl)cc3)c3ccccc23)ccn1` [Example 5, 4-[4-(4-Chlorophenylamino)phthalazin-1-yloxymethyl]pyridin-2-yl carboxylic acid amide] the value was 20 to 50 nM. The compound `N#CC(c1ccncc1)c1nnc(Nc2ccc3c(c2)CCC3)c2ccccc12` (centres unmarked) [Example 22, 1-(indan-5-ylamino)-4-(4-pyridylcyanomethyl)phthalazine] returned an IC50 in test [2] of 100 to 1000 nM. In the case of `NC(=O)c1cc(Cc2nnc(Nc3cccc(Br)c3)c3ccccc23)ccn1` [Example 7, 4-[4-(3-Bromophenylamino)phthalazin-1-ylmethyl]-pyridin-2-yl carboxylic acid amide], the IC50 in test [2] is below 100 nM; in test [1], below 20 nM. Compound `CC(C)c1ccc(Nc2nnc(Sc3nnc(-c4ccncc4)[nH]3)c3ccccc23)cc1` [Example 18, 1-(4-isopropylphenylamino)-4-[5-(4-pyridyl)-1H-1,2,4-triazolyl-3-ylthio]phthalazine] yielded an IC50 in test [2] above 1000 nM.

Consider `Clc1ccc(Nc2nnc(Cc3ccnc(-c4ccccc4)c3)c3ccccc23)cc1` [Example 8, 1-(4-chlorophenylamino)-4-[(2-phenyl-4-pyridyl)methyl]phthalazine], for which the IC50 in test [2] lay within 100 to 1000 nM; in test [1], 20 to 50 nM.
